Reference: paper PMC5577515, “Peptide‐Directed Binding for the Discovery of Modulators of α‐Helix‐Mediated Protein–Protein Interactions: Proof‐of‐Concept Studies with the Apoptosis Regulator Mcl‐1” (Angewandte Chemie (International Ed. in English), 2017)
Like-named read-outs stand apart in the source and are kept apart here. Peptide text beside a SMILES is read from it. * marks the point of attachment. X3 = O=C(Cn1cc(-c2ccc([N+](=O)[O-])cc2)nn1)*; X4 = O=C(Cn1cc(-c2c(O)ccc3ccccc23)nn1)*; X2 = COc1ccc(OC)c(-c2cn(CC(=O)*)nn2)c1; X1 = O=C(Cn1cc(-c2ccc(Cl)cc2Cl)nn1)*

Legend:
Mcl-1 = molecular target: T1, Mcl-1 (UniProt P97287+Q07820); experiment: Competitive fluorescence anisotropy (FA) assay, FITC-NoxaB displacement from Mcl-1; format: binding
T1 construct: amino acid residues 152-189 of mouse Mcl-1 fused with amino acid residues 209-327 of; 8 x His (N); TEV site (N); made in house; host or cells: E. coli BL21(DE3)pLysS
T1 sequence (P97287 152-189 limits assumed): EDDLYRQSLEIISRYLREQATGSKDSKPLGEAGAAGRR
T1 sequence (Q07820 209-327 limits assumed): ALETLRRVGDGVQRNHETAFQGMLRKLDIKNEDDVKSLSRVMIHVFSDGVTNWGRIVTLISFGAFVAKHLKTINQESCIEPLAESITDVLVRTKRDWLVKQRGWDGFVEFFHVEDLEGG
Protocol: Fmoc, 9-fluorenylmethylcarbony. IC50 determined by non -linear regression of at least three experiments.
4. Fluorescence Anisotropy Binding Assay
Fluorescence anisotropy was carried out on a BMG Labtech clariostar microplate reader with a fluorescence anisotropy optic measuring at 482/530 nm. Low -binding, Corning 96 -well black plates were used and all reagents used in the assay were biological grade and purchased from Sigma Aldrich and Novabioche m. All solutions were made using MilliQ water .
Anisotropy values were automatically calculated using the following formula […]
Where r = anisotropy, l a = parallel emission light, lb = perpendicular emission light and I = total […]
KD was determined using GraphPad Prism Version 6.0 software, using the One Site – Total binding […]
Where Bmax is the maximum specific binding, KD is the equilibrium binding constant, and NS is the slope of nonspecific binding. […]
IC50 was determined using GraphPad Prism Version 6.0 software, using a four-parameter logistic model, according to precedent from Ottmann and co-workers.[5] Errors are the transformed greater extreme of the standard error. […]
For binding each well contained 10 µL of Mcl -1 protein in 10-fold dilutions (0.37 pM to 3.7 µM) […]
protein were dissolved in PBS: 0.05% Tween -20 buffer at pH 7.4. Reagents were incubated for 30 min at room temperature prior to reading. Bubbles were removed and 8 data points were generated.
Figure S 1: Fluorescence Anisotropy direct titration.
To confirm reproducibility of
(µ) and standard deviations (σ) were inputted into the following equation:
Inhibition screens were carried out using 10 nM Mcl -1, 5 nM fluorescently-tagged peptide and 100 µM of inhibitor. Compounds were dissolved in DMSO. […]
control (DMSO) were used to define the mini mum and maximum values and ensure the assay was […]
(1 picture or pasted object on this page, not shown here) […]
Bubbles were removed and 8 data points were generated. […]

AsPC-1 cells = experiment: MTS cytotoxicity assay, AsPC-1; format: cell-based; settings: 37 °C, triplicate, at least three experiments, errors = transformed greater extreme of standard error, read-out: AsPC-1 cell growth inhibition IC50
Protocol: (§1) CUSTOM_[…] ("<1>=[N+]",("charge", 0, 2)) […]
(§2) CUSTOM_[…] ("<1>=[N]=[N]",("bond",1,(2,3))) […]
(§3) CUSTOM_[…] ("<1>([C]=[C])=[N][N]",("bond",1,(3,5))) […]
(§4) The MiaPaCa-2 cell line, BxPC-3 cell line and AsPC-1 cell line were purchased from the European Collection of Cell Cultures (ECACC, Porton Down, UK). MiaPaCa-2 cells were cultured in DMEM media with 2 mM L-glutamine, 100 U/mL penicillin, 100 µg/mL streptomycin and 10% FCS.
(§5) BxPC-3 cells and AsPC-1 cells were cultured in RPMI-1640 media containing 2 mM L-glutamine, 100 U/mL penicillin, 100 µg/mL streptomycin and 10% FCS. Cells were sub-cultured twice weekly and maintained at 37 °C and 5% CO2.
(§6) The anti-proliferative activity of the compounds studied was assessed by MTS assay (Promega) following the manufacturer’s instructions. Cells were seeded at 5 x 103 / 100 μL in a 96-well plate and left untreated or treated with DMSO (vehicle control), or compounds 1-4 (100 μM – […], in well concentration) in triplicate for 72 h at 37 °C with 5% CO2. Following this, MTS assay reagent was added to each well and the plates incubated for 4 h at 37 °C with 5% CO2. The absorbance was measured at 492 nm using the BMG Labtech POLARstarOPTIMA microplate reader. […]

MiaPaCa-2 cells = experiment: MTS cytotoxicity assay, MiaPaCa-2; format: cell-based; settings: 37 °C, triplicate, at least three experiments, errors = transformed greater extreme of standard error, read-out: MiaPaCa-2 cell growth inhibition IC50
Protocol: as §1, §2, §3, §4, §5, §6

BxPC-3 cells = experiment: MTS cytotoxicity assay, BxPC-3; format: cell-based; settings: 37 °C, triplicate, at least three experiments, errors = transformed greater extreme of standard error, read-out: BxPC-3 cell growth inhibition IC50
Protocol: as §1, §2, §3, §4, §5, §6

[1] = Table 2, inhibition of binding of 5 nM FITC-NoxaB to 10 nM Mcl-1, PBS, 0.05% Tween-20, pH 7.4, non-linear regression of at least three experiments, errors = transformed greater extreme of standard error, SEM, read-out: FA IC50
[2] = Table S2, binding inhibition of FITC-NoxaB to Mcl-1, small molecules not tested against cell lines, at least three experiments, errors = transformed greater extreme of standard error, SEM, read-out: FA IC50
[3] = Table S2, binding inhibition of FITC-NoxaB to Mcl-1, small molecules not tested against cell lines, at least three experiments, errors = transformed greater extreme of standard error, read-out: FA IC50
[4] = Table 1, inhibition of binding of 5 nM FITC-NoxaB to 10 nM Mcl-1, PBS, 0.05% Tween-20, pH 7.4, non-linear regression of at least three experiments, errors = transformed greater extreme of standard error, [b] <100 means <100 μM and >10 μM, accurate value not determined, read-out: FA IC50
[5] = Table S1, binding inhibition of FITC-NoxaB to Mcl-1, * less than 100 µM and greater than 10 µM, accurate IC50 not determined, read-out: FA IC50
[6] = Table 1, inhibition of binding of 5 nM FITC-NoxaB to 10 nM Mcl-1, PBS, 0.05% Tween-20, pH 7.4, non-linear regression of at least three experiments, errors = transformed greater extreme of standard error, [b] <100 means <100 μM and >10 μM, accurate value not determined, SEM, read-out: FA IC50

## CC[C@H](C)[C@H](NC(=O)[C@H](CCCNC(=N)N)NC(=O)[C@H](CCCNC(=N)N)NC(=O)[C@H](CC(C)C)NC(=O)[C@H](CCC(N)=O)NC(=O)[C@H](C)NC(=O)[C@H](C)NC(C)=O)C(=O)NCC(=O)N[C@@H](CC(=O)O)C(=O)N[C@@H](Cc1cn(Cc2ccccc2F)nn1)C(N)=O [Compound 2]
Mcl-1; SEM, read-out: FA IC50
  IC50: 0.4 ± 0.3 µM

## CC[C@H](C)[C@H](NC(=O)[C@H](CCCNC(=N)N)NC(=O)[C@H](CCCNC(=N)N)NC(=O)[C@H](CC(C)C)NC(=O)[C@H](CCC(N)=O)NC(=O)[C@H](C)NC(=O)[C@H](C)NC(C)=O)C(=O)NCC(=O)N[C@@H](CC(=O)O)C(=O)N[C@@H](Cc1cn(Cc2ccccc2)nn1)C(N)=O [Compound 3]
Mcl-1; SEM, read-out: FA IC50
  IC50: 0.7 ± 0.8 µM

## CC[C@H](C)[C@H](NC(=O)[C@H](CCCNC(=N)N)NC(=O)[C@H](CCCNC(=N)N)NC(=O)[C@H](CC(C)C)NC(=O)[C@H](CCC(N)=O)NC(=O)[C@H](C)NC(=O)[C@H](C)NC(C)=O)C(=O)NCC(=O)N[C@@H](CC(=O)O)C(=O)N[C@@H](Cc1cn(CC(=O)O)nn1)C(N)=O [Compound 4]
Mcl-1; SEM, read-out: FA IC50
  IC50: 5.8 ± 4.6 µM

## COc1ccc(OC)c(-c2cn(CC(=O)N[C@@H](CCCCN)C(=O)N[C@H](C(=O)N[C@@H](CC(N)=O)C(=O)N[C@@H](CC(C)C)C(=O)N[C@@H](CCCNC(=N)N)C(=O)N[C@@H](CCC(N)=O)C(=O)N[C@@H](CCCCN)C(=O)N[C@@H](CC(C)C)C(=O)N[C@@H](CC(C)C)C(=O)N[C@@H](CC(N)=O)C(N)=O)C(C)C)nn2)c1 [Compound 9] (X2-KVNLRQKLLN-NH2)
Mcl-1; SEM, read-out: FA IC50
  IC50: 0.1 ± 0.1 µM

## CC(C)C[C@H](NC(=O)[C@H](CC(C)C)NC(=O)[C@H](CCCCN)NC(=O)[C@H](CCC(N)=O)NC(=O)[C@H](CCCNC(=N)N)NC(=O)[C@H](CC(C)C)NC(=O)[C@H](CC(N)=O)NC(=O)[C@@H](NC(=O)[C@H](CCCCN)NC(=O)Cn1cc(-c2ccc([N+](=O)[O-])cc2)nn1)C(C)C)C(=O)N[C@@H](CC(N)=O)C(N)=O [Compound 11] (X3-KVNLRQKLLN-NH2)
Mcl-1; SEM, read-out: FA IC50
  IC50: 3.5 ± 1.5 µM

## CC(C)C[C@H](NC(=O)[C@H](CC(C)C)NC(=O)[C@H](CCCCN)NC(=O)[C@H](CCC(N)=O)NC(=O)[C@H](CCCNC(=N)N)NC(=O)[C@H](CC(C)C)NC(=O)[C@H](CC(N)=O)NC(=O)[C@@H](NC(=O)[C@H](CCCCN)NC(=O)Cn1cc(-c2c(O)ccc3ccccc23)nn1)C(C)C)C(=O)N[C@@H](CC(N)=O)C(N)=O [Compound 13] (X4-KVNLRQKLLN-NH2)
Mcl-1; SEM, read-out: FA IC50
  IC50: 8.2 ± 1.9 µM

## CC(C)C[C@H](NC(=O)[C@H](CC(C)C)NC(=O)[C@H](CCCCN)NC(=O)[C@H](CCC(N)=O)NC(=O)[C@H](CCCNC(=N)N)NC(=O)[C@H](CC(C)C)NC(=O)[C@H](CC(N)=O)NC(=O)[C@@H](NC(=O)[C@H](CCCCN)NC(=O)Cn1cc(-c2ccc(Cl)cc2Cl)nn1)C(C)C)C(=O)N[C@@H](CC(N)=O)C(N)=O [Compound 14] (X1-KVNLRQKLLN-NH2)
Mcl-1; SEM, read-out: FA IC50
  IC50: 8.3 ± 3.6 µM

## Fc1ccccc1Cn1cc(C2=CCCCC2)nn1 [Compound 19]
AsPC-1 cells; 72 h
  IC50: > 100 µM
Mcl-1; [1]
  IC50: 0.217 ± 0.058 µM
MiaPaCa-2 cells; 72 h
  IC50: > 100 µM
BxPC-3 cells; 72 h, SEM
  IC50: 21.6 ± 8.83 µM

## C1=C(c2cn(Cc3ccccc3)nn2)CCCC1 [Compound 22, 1-benzyl-4-(cyclohex-1-en-1-yl)-1H-1,2,3-triazole]
AsPC-1 cells; Homo sapiens, ASPC1, 72 h
  IC50: > 100 µM
Mcl-1; SEM, read-out: FA IC50
  IC50: 1.68 ± 0.694 µM
MiaPaCa-2 cells; Homo sapiens, MIA PaCa-2, 72 h
  IC50: > 100 µM
BxPC-3 cells; Homo sapiens, BXPC-3, 72 h
  IC50: > 100 µM

## COC(=O)[C@H](Cc1cn(Cc2ccccc2C)nn1)NC(=O)OCC1c2ccccc2-c2ccccc21 [Compound 24, methyl (S)-2-((((9H-fluoren-9-yl)methoxy)carbonyl)amino)-3-(1-(2-methylbenzyl)-1H-1,2,3-triazol-4-yl)propanoate]
AsPC-1 cells; 72 h, SEM
  IC50: 2.28 ± 1.44 µM
Mcl-1; [1]
  IC50: 2.21 ± 0.877 µM
MiaPaCa-2 cells; 72 h, SEM
  IC50: 2.14 ± 0.56 µM
BxPC-3 cells; 72 h, SEM
  IC50: 10.7 ± 2.72 µM

## CCc1ccc(-c2cn(CC(=O)O)nn2)cc1 [Compound S10]
Mcl-1; [2]
  IC50: 0.497 ± 0.367 µM

## O=C(O)Cn1cc(-c2ccc([N+](=O)[O-])cc2)nn1 [Compound S11]
Mcl-1; [2]
  IC50: 0.561 ± 0.13 µM

## Cc1ccc(-c2cn(CC(=O)O)nn2)c(C)c1 [Compound S12]
Mcl-1; [2]
  IC50: 0.766 ± 0.484 µM

## CCOc1ccc(-c2cn(CC(=O)O)nn2)cc1 [Compound S13]
Mcl-1; [2]
  IC50: 1.32 ± 1.1 µM

## Fc1ccccc1Cn1cc(-c2ccccc2Cl)nn1 [Compound S14]
Mcl-1; [2]
  IC50: 1.37 ± 0.938 µM

## CCC(C)c1cn(Cc2ccccc2)nn1 (stereo not drawn) [Compound S15]
Mcl-1; [2]
  IC50: 3.31 ± 0.488 µM

## COC(=O)[C@H](Cc1cn(CC(=O)O)nn1)NC(=O)OCC1c2ccccc2-c2ccccc21 [Compound S16]
Mcl-1; [2]
  IC50: 5.28 ± 1.69 µM

## COC(=O)[C@H](Cc1cn(Cc2ccc(Br)cc2)nn1)NC(=O)OCC1c2ccccc2-c2ccccc21 [Compound S17]
Mcl-1; [3]
  IC50: > 100 µM

## CCCCCCCc1cn(C23CC4CC(CC(C4)C2)C3)nn1 [Compound S18]
Mcl-1; [3]
  IC50: > 100 µM

## CCCCCCCc1cn(Cc2ccccc2F)nn1 [Compound S19]
Mcl-1; [3]
  IC50: > 100 µM

## AAQLRRIGD [Compound 5]
Mcl-1; [4]
  IC50: < 100 µM

## AAQLRRIGD [Compound S1]
Mcl-1; [5]
  IC50: < 100 µM

## KVNLRQKLLN [Compound 10]
Mcl-1; [6]
  IC50: 1.2 µM

## KVNLRQKLLN [Compound 12]
Mcl-1; [6]
  IC50: 4.3 ± 0.9 µM

## KVNLRQKLLN [Compound 15]
Mcl-1; [4]
  IC50: < 100 µM

## KVNLRQKLLN [Compound S2]
Mcl-1; [5]
  IC50: < 100 µM

## extended NoxaB peptide: the two NoxaB peptide fragments clicked together by CuAAC (AAQLRRIGDXKVNLRQKLLN; N-terminal acetyl)
Mcl-1; 5 nM FITC-NoxaB, 10 nM Mcl-1, read-out: IC50 (competitive FA assay, Mcl-1)
  IC50: 7.23 ± 0.88 µM
